These are literature values, as cited in publication PMC3197600 (PLoS Pathogens, 2011).

Molecules are shown by their SMILES.

The subject of this data set is oseltamivir-resistant His274Tyr H1N1 infection. The following applies: human, in vivo; cited from earlier work.

For `[H]/N=C(\N)N[C@H]1C=C(C(=O)O)O[C@@H]([C@H](OC)[C@H](O)COC(=O)CCCCCCC)[C@@H]1NC(C)=O` [CS-8958, laninamivir octanoate], the “effectiveness compared with oseltamivir” value is listed as “not significantly better than oseltamivir”.
